Experimental data from patent publication US20120316203A1, “Compositions and Methods for Inhibition of Cancers” (THE OHIO STATE UNIVERSITY RESEARCH FOUNDATION, priority 2009, published 2012).

Assays:
A2780 cells = test: Cell-cycle analysis by flow cytometry; format: cell-based, human; settings: 6, 12, or 24 hours, versus nontreated control
Protocol: Cells were treated with HO-3867 (10 μmol/L) for 24 hours, trypsinized, washed in PBS, and fixed in an ice-cold 75% ethanol/PBS solution. The DNA was labeled with propidium iodide. Cells were sorted by flow cytometry and cell cycle profiles were determined using ModFit LT software (Becton Dickinson).
We next examined whether the growth inhibition of A2780 cells by HO-3867 was caused by cell cycle arrest. Cells were treated with HO-3867 for 6, 12, or 24 hours; fixed; and cell cycle populations were determined by flow cytometry.

hOSE cells = test: Cell viability by MTT assay, noncancerous hOSE control cells; format: cell-based, human
Protocol: Cell viability was determined by a colorimetric assay using MTT. In the mitochondria of living cells, yellow MTT undergoes a reductive conversion to formazan, producing a purple color. Cells, grown to […] confluence in 75-mm flasks, were trypsinized, counted, seeded in 96-well plates with an average population of 7,000 cells per well, incubated overnight, and then treated with curcumin, H-4073, or HO-3867 for 24 hours. All experiments were done using eight replicates and, repeated at least thrice.

[1] = test system: caspase-8, caspase-7, cleaved caspase-3, PARP, Fas/CD95, Fas-L, TNF-R1 in A2780 cells; test: Immunoblot of apoptotic marker proteins and death receptors; format: cell-based, human
Protocol: Cells in RPMI 1640 were treated with DMSO (control) or HO-3867 (10 μmol/L) for 24 hours. Equal volumes of DMSO (0.1% v/v) were present in each treatment. Following treatment, the cell lysates were prepared in non-denaturing lysis buffer containing 10 mmol/L Tris-HCl (pH 7.4), 150 mmol/L NaCl, 1% Triton X-100, 1 mmol/L EDTA, 1 mmol/L EGTA, 0.3 mmol/L phenylmethyl-sulfonyl fluoride, 0.2 mmol/L sodium orthovanadate, 0.5% NP40, 1 μg/mL aprotinin, and 1 μg/mL leupetin. The lysates were centrifuged at 10,000×g for 20 minutes at 4° C. and the supernatant was separated. The protein concentration in the lysates was determined using a Pierce detergent-compatible protein assay kit. For Western blotting, 25 to 50 μg of protein lysate per sample were denatured in 2×SDS-PAGE sample buffer and subjected to SDS-PAGE on a 10% tris-glycine gel. The separated proteins were transferred to a polyvinylidene fluoride membrane and were blocked with 5% nonfat milk powder (w/v) in TBST (10 mmol/L Tris, 10 mmol/L NaCl, 0.1% Tween 20) for 1 hour at room temperature or overnight at 4° C. The membranes were then incubated with the primary antibodies. The bound antibodies were detected with horseradish peroxidase-labeled sheep anti-mouse IgG or horseradish peroxidase-labeled donkey anti-rabbit IgG using an enhanced chemiluminescence detection system (ECL Advanced kit). Protein expressions were determined using the Image Gauge v. 3.45 software.

[2] = test system: A2780 and other cancer cells; test: Metabolic conversion to nitroxide in cancer cells (EPR); format: in vitro ADME, human
Description: The N-hydroxypyrroline (—NOH) moiety is capable of undergoing a reversible one-electron oxidation to its nitroxide form (—NO; FIG. 9A), which is paramagnetic and detectable by EPR spectroscopy.

[3] = test system: A2780 human ovarian tumor xenograft; test: Ovarian cancer tumor xenografts in mice, tumor growth; format: in vivo, BALB/c nude mice; settings: 25, 50, and 100 ppm in feed, 5 weeks; dose-dependent, 50 and 100 ppm more effective
Protocol: Cultured A2780 cancer cells (2×10^6 cells in […] of PBS) were s.c. injected into the back of 6-week-old BALB/c nude mice from the National Cancer Institute. Five to 7 days later, when the tumors reached 3 to 5 mm in diameter, the mice were divided (n=9/group) in a manner to equalize the mean tumor diameter among the groups. The control group was given a normal diet (no treatment), whereas the experimental groups were treated using the DAP compounds mixed with the animal feed (Harlan Teklad) at three different levels (25, 50, and 100 ppm). The doses were chosen based on an initial dose-response study optimized to produce an observable effect on tumor growth. The size of the tumor was measured twice per week using a digital Vernier caliper. The tumor volume was determined from the orthogonal dimensions (d1, d2, d3) using the formula (d1×d2×d3)×π/6. Thirty five days after the beginning of HO-3867 treatment, the mice were sacrificed and the tumors were resected. The tumor tissues were then subjected to immunoblot analysis.

[4] = test system: FAS and FAK in A2780 and SKOV3 cells; test: FAS and FAK protein and mRNA expression in ovarian cancer cells; format: cell-based, human; settings: 10 μM
Protocol: Cells in RPMI 1640 medium were treated with DMSO (control) or HO-3867 (10 μM) for 24 h. Equal volumes of DMSO (0.1% v/v) were present in each treatment. Following treatment, the cell lysates were prepared in nondenaturing lysis buffer containing 10-mM Tris-HCl (pH 7.4), 150-mM NaCl, 1% Triton X-100, 1-mM EDTA, 1-mM EGTA, 0.3-mM phenylmethylsulfonyl fluoride, 0.2-mM sodium orthovanadate, 0.5% NP40, 1-μg/ml aprotinin, and 1-μg/ml leupetin. The lysates were centrifuged at 10,000×g for 20 min at 4° C., and the supernatant was separated. The protein concentration in the lysates was determined using a Pierce detergent-compatible protein assay kit. For Western blotting, 25 to 50 μg of protein lysate per sample was denatured in 2×SDS-PAGE sample buffer and subjected to SDS-PAGE on a 10% tris-glycine gel. […] The bound antibodies were detected with horseradish peroxidase (HRP)-labeled sheep anti-mouse IgG or HRP-labeled donkey anti-rabbit IgG using an enhanced chemiluminescence detection system (ECL Advanced kit). Protein expressions were determined using Image Gauge version 3.45.
Total RNA isolated from ovarian tumor tissue was prepared with TRIzol (Life Technologies, Grand Island, N.Y.) according to the manufacturer's instructions. RNA quantification was done using spectrophotometry. […]

CC1(C)C=C(CN2C/C(=C\c3ccc(F)cc3)C(=O)/C(=C/c3ccc(F)cc3)C2)C(C)(C)N1O [HO-3867, 1-[(1-oxyl-2,2,5,5-tetramethyl-2,5-dihydro-1H-pyrrol-3-yl)methyl]-(3E,5E)-3,5-bis(4-fluorobenzylidene)piperidin-4-one]
percentages of the cell population in the G2-M and sub-G1 phases (A2780 cells): significantly higher
cytotoxicity to hOSE cells (hOSE cells; 20 μmol/L): significant cytotoxicity
toxicity to noncancerous hOSE cells compared with H-4073 (hOSE cells; equivalent doses): significantly less toxic
cytotoxicity to hOSE cells (hOSE cells; up to 10 μmol/L): no significant cytotoxicity
level of activated caspases (caspase-8, caspase-7, cleaved caspase-3) and PARP ([1]; 24 hours, versus nontreated cells): significant increase
Fas-L level ([1]; data not shown): no significant change
expression level of TNF-R1 ([1]; data not shown): unchanged
Fas/CD95 expression ([1]; versus nontreated group): clear increase
EPR signal intensity of the nitroxide metabolite in A2780 cells compared to PBS [2]: fivefold increase
EPR spectrum (nitroxide signal) after incubation with A2780 cells ([2]; 37° C., EPR): characteristic triplet feature
tumor volume [3]: significant reduction
FAS and FAK, protein and expression levels [4]: incubation-time-dependent inhibition
